We go through nine compounds from article PMC10647704 (Molecules, 2023).

For series [1], the target named is yeast plasma membrane H+-ATPase (Pma1p) (Candida albicans, UniProt P28877). In words: Medium acidification assay in C. albicans S1. It is filed as cell-based. As to conditions: change in pH at 30 min, highest test concentration 30 µM, mean ± SEM of three experiments.
Series [2] deals with C. albicans S1 (FLU-sensitive). In words: Turbidity assay (MIC and IC50) in C. albicans S1. The class given is cell-based.
In series [3] the test system is human epidermoid carcinoma cells KB-3-1. Description: MTT cell viability assay in KB-3-1 cells. The class given is cell-based. Particulars: for IC50: 24 h incubation, 48 h of treatment; for fungal selectivity (ratio of the IC50 in KB-3-1 cells to the IC50 in S1 cells): KB-3-1 vs C. albicans S1. As for the experimental part: MTT assays were then performed to assess the effect of the test compounds on human epidermoid carcinoma cells KB-3-1 (24 h incubation).
The cell viability assay was performed in human epidermoid carcinoma cells KB-3-1. Initially, 5 × 10^3 cells were seeded into each well in a 96-well plate. […] After 48 h of treatment, 20 µL of MTT solution (5 mg/mL) was added to each well and allowed to incubate for 3.5 h. Subsequently, DMSO was added to each well upon removal of the MTT solution. The Abs570nm values were then measured using an accuSkanTM GO UV/VIS Microplate Spectrophotometer (Fisher Sci., Fair Lawn, NJ, USA).
(In general: Tetrazolium dyes change colour on reduction, which living cells bring about.)

Series [4] deals with C. albicans S1 (FLU-sensitive). Description: Colorimetric resazurin assay (MIC) in C. albicans S1. As to conditions: read-out: MIC, colorimetric assay. It is filed as cell-based. In general terms: Alamar Blue is a resazurin reagent that responds to reducing activity.
Series [5] relates to reconstructed human epidermis. In words: In vitro skin irritation test on reconstructed human epidermal model (EpiDerm, OECD TG 439). It is filed as cell-based. As for the experimental part:
The in vitro skin irritation test was performed using MatTek Corporation’s Reconstructed Human Epidermal Model EpiDerm™ following the manufacturer’s instructions, which fulfills the criteria set forth in the Organization for Economic Co-operation and Development.
Briefly, we applied either 30 µL of CHB4 or CHB6, PBS, 0.1% DMSO or 30 µL of 1% Triton-X100 (positive control for irritation). All plates were then incubated in a humidified environment for an additional 35 ± 1 min at 37 ± 1 °C, 5 ± 1% CO2, and 90% ± 10% relative humidity (RH). Once the 1 h incubation period was completed for the dosed tissues, all plates were removed from the incubator and placed in a sterile hood. The tissues were then rinsed 15 times with sterile PBS. The blotted tissue inserts were then incubated for 42 ± 2 h after which time the cell viability was determined using the MTT assay as described.

The target in series [6] is Na+, K+-ATPase (purified from pig kidney outer medulla) (Sus scrofa, UniProt P05024). Description: Na+,K+-ATPase activity assay. As to conditions: test concentrations similar to the MIC concentrations; micromolar range; prevented by 5 mM GSH. The class given is biochemical.
Series [7] has as its system C. albicans S1. In words: Mouse model of vulvovaginal candidiasis (VVC). As to conditions: for expression of MPO in vaginal tissue (IHC): day 6, compared to 6th day infected and vehicle groups; for PMN counts of vaginal tissues: day 6, compared to control and vehicle group; for histopathology of vaginal tissue (H&E): day 6, infected and treated mice; for gross markers of the health of the mice: intravaginal suspension, over the course of the study; for Log CFU/100 μL / Remaining C. albicans S1 Compared to Control (100%): vaginal lavage day 6, intravaginal once daily days 3-5, CHB 12.5 mg/kg, MICO 2% cream.

The subject of series [8] is breast cancer cell line MCF-7. Further details: method as in PMID 31683558. Particulars: breast cancer cell line MCF-7 ref 23; cited from earlier work.
Setting [9] is: read-out: IC50MA (medium acidification).
Where [10] appears, read: C. albicans S1, 24 h; for FLU the lowest concentration causing 70% decrease in turbidity; read-out: MIC, turbidity assay.
The mark [11] stands for this setting: C. albicans S1, 48 h; for FLU the lowest concentration causing 70% decrease in turbidity; read-out: MIC, turbidity assay.
The mark [12] stands for this setting: Candida albicans, 24 h, read-out: MIC, turbidity assay.
Setting [13] is: Candida albicans, 48 h, read-out: MIC, turbidity assay.
Where [14] appears, read: Candida albicans, 48 h, read-out: Turbidity Assay IC50 C. albicans S1.
Setting [15] is: Homo sapiens, KB 3-1, read-out: MTT Assay IC50 KB-3-1 Cells, KB-3-1 cells.
The mark [16] stands for this setting: Candida albicans, 24 h; read-out: MIC, turbidity assay.
Where [17] appears, read: Candida albicans, 48 h; read-out: MIC, turbidity assay.
[18] abbreviates: Candida albicans; Abs600nm at 48 h; read-out: Turbidity Assay IC50 C. albicans S1.
[19] abbreviates: Homo sapiens, KB 3-1, KB-3-1 cells, read-out: MTT Assay IC50 KB-3-1 Cells.
Setting [20] is: Candida albicans, C. albicans S1, 24 h, resazurin.
Setting [21] is: Candida albicans, C. albicans S1, 48 h, resazurin.
Where [22] appears, read: KB-3-1 cells, read-out: MTT Assay IC50 KB-3-1 Cells.
Setting [23] is: Abs600nm at 48 h; read-out: Turbidity Assay IC50 C. albicans S1.
The mark [24] stands for this setting: Candida albicans, 48 h, Abs600nm at 48 h; read-out: Turbidity Assay IC50 C. albicans S1.

In brackets after ≈: the same amount, converted by molar mass. Where two headings read alike, the source gives them in different places.

One may read the MIC as the lowest concentration that inhibits growth of the organism.

Sequence of yeast plasma membrane H+-ATPase (Pma1p) (P28877 whole entry): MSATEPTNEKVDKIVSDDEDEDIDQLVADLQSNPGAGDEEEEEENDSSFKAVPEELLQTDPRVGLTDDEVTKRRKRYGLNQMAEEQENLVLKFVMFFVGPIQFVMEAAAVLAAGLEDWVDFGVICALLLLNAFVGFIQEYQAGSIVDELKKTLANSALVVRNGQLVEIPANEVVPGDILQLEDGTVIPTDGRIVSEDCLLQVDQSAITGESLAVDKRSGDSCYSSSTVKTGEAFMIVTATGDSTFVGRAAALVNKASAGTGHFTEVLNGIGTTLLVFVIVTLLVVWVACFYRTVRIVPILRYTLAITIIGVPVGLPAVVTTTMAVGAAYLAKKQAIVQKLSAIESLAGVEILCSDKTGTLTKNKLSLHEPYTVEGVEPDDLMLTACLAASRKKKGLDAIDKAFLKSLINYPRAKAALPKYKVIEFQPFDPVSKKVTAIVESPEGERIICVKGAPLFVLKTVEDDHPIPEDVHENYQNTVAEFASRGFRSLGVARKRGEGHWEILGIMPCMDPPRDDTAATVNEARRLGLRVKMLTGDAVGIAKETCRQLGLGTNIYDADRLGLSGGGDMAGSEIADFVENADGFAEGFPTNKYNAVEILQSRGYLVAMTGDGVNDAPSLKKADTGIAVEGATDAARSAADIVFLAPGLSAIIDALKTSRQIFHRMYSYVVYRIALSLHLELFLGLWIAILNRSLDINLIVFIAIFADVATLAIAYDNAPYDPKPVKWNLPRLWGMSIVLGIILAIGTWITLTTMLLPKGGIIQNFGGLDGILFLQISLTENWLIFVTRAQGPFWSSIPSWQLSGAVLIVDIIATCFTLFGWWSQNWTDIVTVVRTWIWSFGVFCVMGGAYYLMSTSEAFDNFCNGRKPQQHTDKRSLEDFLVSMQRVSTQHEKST

Turning to `CC1(C)C2CCC(Cn3[se]c4ccccc4c3=O)C1C2` (single isomer, unassigned; (-)) [CHB3], the IC50 is > 30 µM in series [1] (setting [9]); 18.1 ± 0.2 µM in series [2] (setting [14]); > 60 µM in series [3] (setting [15]); 65.7 ± 4.4 µM in series [3] (read-out: MTT Assay IC50 KB-3-1 Cells, KB-3-1 cells). Besides, the MIC in series [2] (setting [10]) came to 25.0 µM (≈ 8.36 µg/mL); in series [2] (setting [11]), 25.0 µM (≈ 8.36 µg/mL); in series [2] (setting [12]), 25 µM (≈ 8.36 µg/mL); in series [2] (setting [13]) it was 25 µM (≈ 8.36 µg/mL); in series [4] (Candida albicans, 24 h) it was 12.5 µM (≈ 4.18 µg/mL); in series [4] (Candida albicans, 48 h), 25 µM (≈ 8.36 µg/mL).
As for `C[C@@H]1[C@@H](n2[se]c3ccccc3c2=O)C[C@H]2C[C@@H]1C2(C)C` [CHB1], the IC50 in series [1] (IC50MA (medium acidification)) was > 30 µM; in series [2] (setting [18]), 7.3 ± 0.1 µM; in series [3] (setting [19]), 28.1 ± 1.5 µM. Also, the MIC came to 12.5 µM (≈ 4.18 µg/mL) in series [2] (setting [16]), 12.5 µM (≈ 4.18 µg/mL) in series [2] (setting [17]), 12.5 µM (≈ 4.18 µg/mL) in series [4] (setting [20]) and 6.3 µM (≈ 2.11 µg/mL) in series [4] (setting [21]).
For the compound `C[C@H]1[C@H](n2[se]c3ccccc3c2=O)C[C@@H]2C[C@H]1C2(C)C` [CHB2], the results for the IC50 in series [1] (IC50MA (medium acidification)), in series [2] (setting [18]) and in series [3] (setting [19]) were > 30 µM, 7.6 ± 0.1 µM and 25.5 ± 1.9 µM, respectively. For the same compound, the MIC in series [2] (setting [16]), in series [2] (setting [17]), in series [4] (setting [20]) and in series [4] (setting [21]) was 12.5 µM (≈ 4.18 µg/mL) in each case.
In the case of `C[C@H]1CC[C@@H]2[C@H]([C@@H]1n1[se]c3ccccc3c1=O)C2(C)C` [CHB4], the skin irritation entry in series [5] (test concentrations up to 100 µM) was “no skin irritation”. In addition, the IC50 in series [1] (setting [9]) came to 13.8 ± 1.1 µM. In series [6], the “inhibitory activity towards the Na+, K+-ATPase” value is “possess inhibitory activity”. Moreover, the MIC in series [2] (setting [12]) amounted to 12.5 µM (≈ 4.18 µg/mL). For the same compound, in series [2] (setting [13]), the MIC is 12.5 µM (≈ 4.18 µg/mL). Besides, the IC50 in series [2] (setting [14]) is 7.7 ± 0.1 µM. For the same compound, the IC50 in series [3] (setting [15]) was 17.9 ± 3.1 µM. For the same compound, the “fungal selectivity (ratio of the IC50 in KB-3-1 cells to the IC50 in S1 cells)” value in series [3] stood at 2.3. In addition, in series [7], the “expression of MPO in vaginal tissue (IHC)” value is reported as “decrease”; the “PMN counts of vaginal tissues” value was “less PMN counts compared to control and vehicle group”; the “histopathology of vaginal tissue (H&E)” value was “slight epithelial distress”; the “gross markers of the health of the mice” value is listed as “without affecting any gross markers of the health of the mice”. Also, in series [7], the “Log CFU/100 μL” value was 4.448 Log CFU/100 μL and the “Remaining C. albicans S1 Compared to Control (100%)” value was 6.607%. The MIC in series [4] (Candida albicans, 24 h) is 6.3 µM (≈ 2.11 µg/mL). The MIC in series [4] (Candida albicans, 48 h) stood at 12.5 µM (≈ 4.18 µg/mL).
Regarding `C[C@@H]1C[C@H]2[C@@H](C[C@H]1n1[se]c3ccccc3c1=O)C2(C)C` [CHB5], the IC50 in series [1] (IC50MA (medium acidification)) was > 30 µM; in series [2] (setting [18]), 7.5 ± 0.1 µM; in series [3] (setting [19]) it was > 90 µM; in series [3] (setting [22]), 94.1 ± 4.7 µM. Further, the MIC in series [2] (setting [16]) amounted to 25 µM (≈ 8.36 µg/mL); in series [2] (setting [17]), 12.5 µM (≈ 4.18 µg/mL); in series [4] (setting [20]), 12.5 µM (≈ 4.18 µg/mL); in series [4] (setting [21]), 25 µM (≈ 8.36 µg/mL).
Take `CC(C)[C@@H]1CC[C@@H](C)C[C@H]1n1[se]c2ccccc2c1=O` [CHB6, (−)-N-(1R,2S,5R)-menthyl-1,2-benzizoselenazol-3(2H)-one]: in series [5] (test concentrations up to 50 µM), the skin irritation result was “no skin irritation”. Moreover, the IC50 in series [1] (setting [9]) was > 30 µM; in series [8] it was 11.9 ± 0.2 µM; in series [2] (setting [14]), 1.8 ± 0.1 µM; in series [3] (setting [15]) it was 48.5 ± 5.9 µM. In series [6], the “inhibitory activity towards the Na+, K+-ATPase” value is listed as “possess inhibitory activity”. In addition, the MIC came out at 3.1 µM (≈ 1.04 µg/mL) in series [2] (setting [12]); 3.1 µM (≈ 1.04 µg/mL) in series [2] (setting [13]); 3.1 µM (≈ 1.04 µg/mL) in series [4] (Candida albicans, 24 h); 3.1 µM (≈ 1.04 µg/mL) in series [4] (Candida albicans, 48 h). In addition, the “fungal selectivity (ratio of the IC50 in KB-3-1 cells to the IC50 in S1 cells)” value in series [3] was 26.9. In addition, the “expression of MPO in vaginal tissue (IHC)” value in series [7] is recorded as “decrease”. Further, in series [7], the “PMN counts of vaginal tissues” value is “less PMN counts compared to control and vehicle group”. The “histopathology of vaginal tissue (H&E)” value in series [7] is reported as “slight epithelial distress”. In addition, in series [7], the “gross markers of the health of the mice” value is reported as “without affecting any gross markers of the health of the mice”. For the same compound, in series [7], the “Log CFU/100 μL” value is reported as 3.655 Log CFU/100 μL. The “Remaining C. albicans S1 Compared to Control (100%)” value in series [7] is 1.064%.
For the compound `O=c1c2ccccc2[se]n1-c1ccccc1` [EB, Ebselen, reference compound], the “inhibitory activity towards the Na+, K+-ATPase” value in series [6] is on record as “possess inhibitory activity”. Also, the IC50 in series [2] (setting [23]) is 17.1 ± 1.01 µM; in series [2] (setting [24]) it was ~17 µM; in series [3] (setting [19]), 89.7 µM; in series [3] (setting [22]), 89.7 ± 3.42 µM. In addition, the MIC in series [2] (setting [10]) was determined as 25.0 µM (≈ 6.85 µg/mL); in series [2] (setting [11]), 25.0 µM (≈ 6.85 µg/mL); in series [2] (setting [16]) it was 25 µM (≈ 6.85 µg/mL); in series [2] (setting [17]), 25 µM (≈ 6.85 µg/mL); in series [4] (C. albicans S1, 24 h, resazurin), 25.0 µM (≈ 6.85 µg/mL); in series [4] (C. albicans S1, 48 h, resazurin), 25.0 µM (≈ 6.85 µg/mL). Moreover, the MIC in series [4] (setting [20]) and in series [4] (setting [21]) was 25 µM (≈ 6.85 µg/mL) in each case.
Take `OC(Cn1cncn1)(Cn1cncn1)c1ccc(F)cc1F` [FLU, fluconazole, reference compound]: the IC50 in series [1] (setting [9]) was > 30 µM; in series [2] (setting [23]) it was 6.01 ± 0.1 µM; in series [2] (setting [24]), ~6 µM; in series [3] (setting [19]) it was > 1000 µM. For the same compound, the MIC in series [2] (setting [10]) is 25.0 µM (≈ 7.66 µg/mL); in series [2] (setting [11]), 25.0 µM (≈ 7.66 µg/mL); in series [2] (setting [16]), 25 µM (≈ 7.66 µg/mL); in series [2] (setting [17]), 25 µM (≈ 7.66 µg/mL).
With `Clc1ccc(COC(Cn2ccnc2)c2ccc(Cl)cc2Cl)c(Cl)c1` (centres unmarked) [Miconazole (MICO), miconazole, reference compound], in series [7], the “histopathology of vaginal tissue (H&E)” value is listed as “slight epithelial distress”, the “Log CFU/100 μL” value turned out to be 4.470 Log CFU/100 μL and the “Remaining C. albicans S1 Compared to Control (100%)” value stood at 6.950%.
